Calls of active or inactive are those of the source. The calls are words filed in the database; no cut-off is given here.
How the values were obtained:
[1] = molecular target: T1, P2Y purinoceptor 2 (Homo sapiens, UniProt P41231); test: Agonist activity at P2Y2 receptor expressed in 1321N1 cells assessed as cytosolic calcium level; type: functional, cell-based
[2] = molecular target: T2, P2Y purinoceptor 11 (Homo sapiens, UniProt Q96G91); test: Agonist activity at P2Y11 receptor expressed in 1321N1 cells assessed as cytosolic calcium level; type: functional, cell-based
T2 sequence (Q96G91 whole entry): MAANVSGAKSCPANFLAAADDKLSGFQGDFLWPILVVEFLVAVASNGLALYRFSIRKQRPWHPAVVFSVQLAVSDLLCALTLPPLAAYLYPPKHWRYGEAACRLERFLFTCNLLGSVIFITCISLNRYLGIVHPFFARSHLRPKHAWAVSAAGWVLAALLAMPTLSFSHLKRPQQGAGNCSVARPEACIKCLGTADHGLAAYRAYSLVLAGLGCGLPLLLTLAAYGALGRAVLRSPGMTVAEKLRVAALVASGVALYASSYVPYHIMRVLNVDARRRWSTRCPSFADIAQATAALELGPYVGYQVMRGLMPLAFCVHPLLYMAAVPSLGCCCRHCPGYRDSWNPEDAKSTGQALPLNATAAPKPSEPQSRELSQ

[3] = molecular target: P2Y purinoceptor 1 (Homo sapiens) (UniProt P47900); test: Agonist activity at P2Y1 receptor expressed in 1321N1 cells assessed as cytosolic calcium level at 1 uM relative to GTPgammaS control; type: functional, cell-based
[4] = molecular target: T1, P2Y purinoceptor 2; test: Agonist activity at P2Y2 receptor expressed in 1321N1 cells assessed as cytosolic calcium level at 10 uM relative to GTPgammaS control; type: functional, cell-based
[5] = molecular target: T3, P2Y purinoceptor 11 (Homo sapiens) (UniProt Q96G91); test: Agonist activity at P2Y11 receptor expressed in 1321N1 cells assessed as cytosolic calcium level at 1 uM relative to GTPgammaS control; type: functional, cell-based
T3 sequence (whole entry): T2 sequence (Q96G91 whole entry)

[6] = Toxicity against 1321N1 cells expressing P2Y1 receptor at 1 to 10 uM; type: cell-based; settings: human, 1321-n1, 10 µM
[7] = molecular target: T1, P2Y purinoceptor 2; test: Agonist activity at P2Y2 receptor expressed in 1321N1 cells assessed as cytosolic calcium level at 1 uM relative to GTPgammaS control; type: functional, cell-based
[8] = molecular target: T3, P2Y purinoceptor 11 (Homo sapiens); test: Agonist activity at P2Y11 receptor expressed in 1321N1 cells assessed as calcium mobilization in presence of 10 uM NF340 at 1 uM; type: functional, cell-based
[9] = molecular target: T3, P2Y purinoceptor 11 (Homo sapiens); test: Agonist activity at P2Y11 receptor expressed in 1321N1 cells assessed as cytosolic calcium level at 10 uM relative to GTPgammaS control; type: functional, cell-based
[10] = molecular target: P2Y purinoceptor 1 (Homo sapiens) (UniProt P47900); test: Agonist activity at P2Y1 receptor expressed in 1321N1 cells assessed as cytosolic calcium level at 10 uM relative to GTPgammaS control; type: functional, cell-based
[11] = Toxicity against 1321N1 cells expressing P2Y11 receptor at 1 to 10 uM; type: cell-based; settings: human, 1321-n1, 10 µM
[12] = Toxicity against 1321N1 cells expressing P2Y2 receptor at 1 to 10 uM; type: cell-based; settings: human, 1321-n1, 10 µM
[13] = molecular target: T3, P2Y purinoceptor 11 (Homo sapiens); test: Agonist activity at P2Y11 receptor expressed in 1321N1 cells assessed as calcium mobilization in presence of 10 uM NF340 at 3.6 uM; type: functional, cell-based

P2Y purinoceptor 1 (Homo sapiens), sequence (P47900 whole entry): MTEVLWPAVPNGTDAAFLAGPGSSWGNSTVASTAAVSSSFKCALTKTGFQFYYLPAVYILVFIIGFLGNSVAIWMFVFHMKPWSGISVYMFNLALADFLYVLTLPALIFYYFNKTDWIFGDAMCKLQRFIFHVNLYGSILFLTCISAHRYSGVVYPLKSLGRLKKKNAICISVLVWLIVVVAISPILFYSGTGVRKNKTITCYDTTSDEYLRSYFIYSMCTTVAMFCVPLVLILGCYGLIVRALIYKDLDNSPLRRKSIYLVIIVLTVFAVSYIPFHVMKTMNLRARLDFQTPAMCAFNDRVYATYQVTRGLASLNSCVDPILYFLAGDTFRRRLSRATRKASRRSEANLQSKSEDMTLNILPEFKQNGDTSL
T1 sequence (P41231 whole entry): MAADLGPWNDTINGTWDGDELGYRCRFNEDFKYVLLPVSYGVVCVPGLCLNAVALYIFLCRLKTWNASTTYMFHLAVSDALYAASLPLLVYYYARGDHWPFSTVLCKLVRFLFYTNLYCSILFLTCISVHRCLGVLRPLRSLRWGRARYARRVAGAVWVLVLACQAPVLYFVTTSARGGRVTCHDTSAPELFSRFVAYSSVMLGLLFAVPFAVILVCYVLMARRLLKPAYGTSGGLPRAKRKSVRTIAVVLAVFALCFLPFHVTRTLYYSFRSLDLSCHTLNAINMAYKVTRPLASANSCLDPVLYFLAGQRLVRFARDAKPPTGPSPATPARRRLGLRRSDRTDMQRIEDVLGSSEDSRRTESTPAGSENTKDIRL

Compound	EC50 [1] [nM]	EC50 [2] [nM]	Activity [3] [%]	Activity [4]	Activity [5]	Activity [6]	Activity [7] [%]	Activity [8]	Activity [9]	Activity [10]	Activity [11]	Activity [12]	Activity [13]
O=c1ccn([C@@H]2O[C@H](COP(=O)(O)OP(=O)(O)OP(=O)(O)O)[C@@H](O)[C@H]2O)c(=O)[nH]1 [URIDINE TRIPHOSPHATE]	110												
Nc1ncnc2c1ncn2[C@@H]1O[C@H](CO[P@](=O)(O)O[P@](=O)(O)O[P@@](=O)(O)S)[C@@H](O)[C@H]1O		63.1											
O=C(O)c1c(-c2ccc(O)c(Br)c2)oc2c(Br)cc(/C=C(OS(=O)(=O)[O-])/C(=C/c3cc(Br)c4oc(-c5ccc(O)c(Br)c5)cc4c3)OS(=O)(=O)[O-])cc12.[Na+].[Na+] [8-CARBOXY-ISO-IANTHERAN A]		479	< 5	< 5%	94.6%	Non-toxic	< 5	inactive	114%	< 5%	Non-toxic	Non-toxic	
O=S(=O)([O-])OC(=C\c1cc(Br)c2oc(-c3ccc(O)c(Br)c3)cc2c1)/C(=C/c1cc(Br)c2oc(-c3ccc(O)c(Br)c3)cc2c1)OS(=O)(=O)[O-].[Na+].[Na+] [ISO-IANTHERAN A]		1290		Active	Active	Non-toxic			Active	Active	Non-toxic	Non-toxic	inactive
COc1c(Br)cc(CC(=O)O)cc1Br				< 37.5%		Non-toxic			< 37.5%	< 37.5%	Non-toxic	Non-toxic	
COc1c(Br)cc(/C=C(\OS(=O)(=O)[O-])C(=O)O)cc1Br.[Na+]				< 37.5%		Non-toxic			< 37.5%	< 37.5%	Non-toxic	Non-toxic	

From ChEMBL document CHEMBL1138233, “New iantherans from the marine sponge Ianthella quadrangulata: novel agonists of the P2Y(11) receptor” (J Med Chem, 2007)
